Results published in patent publication US5569658A, “Tricyclic derivatives” (Zeneca Limited, priority 1993, dated 1996).

Tests used:
receptor tyrosine kinase = biological target: T1, receptor tyrosine kinase (Homo sapiens, UniProt P00533); test: in vitro assay: inhibition of the enzyme receptor tyrosine kinase (Test (a)); format: biochemical; settings: partially purified enzyme from A-431 cells; EGF; peptide substrate, [γ-32P]ATP; 25° C., 10 minutes
T1 construct: Receptor tyrosine kinase was obtained in partially purified form from A-431 cells; endogenous in cells; host or cells: A-431 cells (human vulval carcinoma); partially purified, Triton X-100 solubilised membrane fraction
Procedure: (a) An in vitro assay which determines the ability of a test compound to inhibit the enzyme receptor tyrosine kinase. Receptor tyrosine kinase was obtained in partially purified form from A-431 cells (derived from human vulval carcinoma) by procedures related to those described by Carpenter et al., J. Biol. Chem., 1979, 254, 4884, Cohen et al., J. Biol. Chem., 1982, 257, 1523 and by Braun et al., J. Biol. Chem., 1984, 259, 2051.
A-431 cells were grown to confluence using Dulbecco's modified Eagle's medium (DMEM) containing 5% fetal calf serum (FCS). The obtained cells were homogenised in a hypotonic borate/EDTA buffer at pH 10.1. The homogenate was centrifuged at 400 g for 10 minutes at 0°-4° C. The supernatant was centrifuged at 25,000 g for 30 minutes at 0°-4° C. […]
The test compound/EGF mixture solution (5 μl) was added to the test enzyme solution (10 μl) and the mixture was incubated at 0°-4° C. for 30 minutes. […] Radioactivity present in the filter paper was measured using a liquid scintillation counter (Sequence A). […]
Receptor tyrosine kinase inhibition was calculated as follows: [formula]
The extent of inhibition was then determined at a range of concentrations of test compound to give an IC50 value.

[1] = test system: human naso-pharyngeal cancer cell line KB; test: in vitro assay: inhibition of growth of the human naso-pharyngeal cancer cell line KB (Test (b)); format: cell-based; settings: 72 h, EGF (10 ng/ml), 3 days, MTT
Procedure: (b) An in vitro assay which determines the ability of a test compound to inhibit the growth of the human naso-pharyngeal cancer cell line KB.
KB cells were seeded into wells at a density of 1×10^4 -1.5×10^4 cells per well and grown for 24 hours in DMEM supplemented with 5% FCS (charcoal-stripped). Cell growth was determined after incubation for 3 days by the extent of metabolism of MTT tetrazolium dye to furnish a bluish color. Cell growth was then determined in the presence of EGF (10 ng/ml) or in the presence of EGF (10 ng/ml) and a test compound at a range of concentrations. An IC50 value could then be calculated.

liver hepatocyte = test: in vivo assay: inhibition of TGFα-stimulated liver hepatocyte growth in rats (Test (c)); design: species or system rat; settings: TGFα 400 μg/kg subcutaneously; for ED50: Rattus norvegicus, Hepatocyte, male rats, usually oral, approximate ED50, read-out: ED50 in Test (c), inhibition of liver hepatocyte proliferation (BrdU uptake)
Procedure: (c) An in vivo assay in a group of male rats which determines the ability of a test compound (usually administered orally as a ball-milled suspension in 0.5% polysorbate) to inhibit the stimulation of liver hepatocyte growth caused by the administration of the growth factor TGFα (400 μg/kg subcutaneously, usually dosed twice, 3 and 7 hours respectively after the administration of the test compound).
In a control group of rats, the administration of TGFα causes on average a 5-fold stimulation of liver hepatocyte growth.
Cell-growth in the control and test animals is determined as follows:
On the morning of the day after the dosing of the test compound (or 0.5% polysorbate in the control group), the animals are dosed with bromodeoxyuridine (BrdU; 100 mg/kg intraperitoneally). The animals are killed four hours later and the livers are excised. […] Further tests were carried out using a range of doses of the test compounds to allow the calculation of an approximate ED50 value for the inhibition of liver hepatocyte proliferation as determined by inhibition of the uptake of BrdU.

[2] = test system: human mammary carcinoma which expresses epidermal growth factor (EGF) receptor tyrosine kinase; settings: athymic nude mice; Toi et al., 1990; cited from earlier work
[3] = test system: another carcinoma which does not express EGF receptor tyrosine kinase; settings: Toi et al., 1990; cited from earlier work

T1 sequence (P00533 25-1210): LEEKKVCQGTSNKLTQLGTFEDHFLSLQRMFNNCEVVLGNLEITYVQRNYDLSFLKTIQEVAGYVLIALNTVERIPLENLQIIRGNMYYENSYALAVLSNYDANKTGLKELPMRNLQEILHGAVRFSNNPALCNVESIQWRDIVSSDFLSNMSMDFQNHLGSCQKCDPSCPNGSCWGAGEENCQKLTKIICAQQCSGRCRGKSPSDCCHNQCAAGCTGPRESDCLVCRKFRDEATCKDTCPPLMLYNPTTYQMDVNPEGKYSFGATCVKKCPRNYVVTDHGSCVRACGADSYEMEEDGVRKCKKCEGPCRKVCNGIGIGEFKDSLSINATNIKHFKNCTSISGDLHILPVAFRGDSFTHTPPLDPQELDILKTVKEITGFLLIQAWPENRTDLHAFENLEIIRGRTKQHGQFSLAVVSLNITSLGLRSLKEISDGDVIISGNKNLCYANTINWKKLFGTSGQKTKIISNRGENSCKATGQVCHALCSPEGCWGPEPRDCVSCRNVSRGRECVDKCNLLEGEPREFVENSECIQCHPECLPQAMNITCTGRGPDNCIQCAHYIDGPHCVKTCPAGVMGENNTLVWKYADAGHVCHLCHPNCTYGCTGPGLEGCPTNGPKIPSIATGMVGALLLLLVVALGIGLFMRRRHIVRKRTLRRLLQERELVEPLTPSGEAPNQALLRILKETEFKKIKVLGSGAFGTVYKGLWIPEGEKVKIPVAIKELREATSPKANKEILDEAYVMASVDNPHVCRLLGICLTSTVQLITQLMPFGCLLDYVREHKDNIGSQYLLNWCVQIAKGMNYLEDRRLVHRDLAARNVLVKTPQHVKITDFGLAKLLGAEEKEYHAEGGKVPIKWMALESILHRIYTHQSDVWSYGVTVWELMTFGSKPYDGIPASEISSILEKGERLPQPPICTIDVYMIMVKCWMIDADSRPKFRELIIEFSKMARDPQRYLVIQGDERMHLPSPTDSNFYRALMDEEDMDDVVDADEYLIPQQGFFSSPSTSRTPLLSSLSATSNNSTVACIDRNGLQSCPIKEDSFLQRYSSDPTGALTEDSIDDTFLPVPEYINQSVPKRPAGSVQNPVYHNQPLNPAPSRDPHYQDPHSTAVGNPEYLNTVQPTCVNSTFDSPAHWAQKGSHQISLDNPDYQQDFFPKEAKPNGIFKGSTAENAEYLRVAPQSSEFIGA

IC50 (receptor tyrosine kinase) | IC50 [1] | Molecule | ED50 (liver hepatocyte) | stimulation of liver hepatocyte growth (liver hepatocyte; control group of rats, on average) | effect on tumour growth, carcinoma expressing EGF receptor tyrosine kinase [2] | effect on tumour growth, carcinoma not expressing EGF receptor tyrosine kinase [3]
35 nM | 970 nM | Cc1cccc(Nc2ncnc3cc4c(cc23)ncn4C)c1 [3-methyl-8-(3'-methylanilino)-3H-imidazo[4,5-g]-quinazoline] | < 5 mg/kg |  |  | 
 |  | TGFα: the growth factor TGFα |  | ~5 -fold |  | 
 |  | O=CN/C=C/c1cc(O)ccc1O [erbstatin] |  |  | specifically attenuates the growth | without effect
16 nM | 1190 nM | Cc1cccc(Nc2ncnc3cc4c(cc23)[nH]c(=O)n4C)c1 [3-methyl-8-(3'-methylanilino)-1,2-dihydro-3H-imidazo[4,5-g]quinazolin-2-one] | < 12.5 mg/kg |  |  | 
